Experimental data from patent US5919464A, “Treatment of aberrant cellular states with biomodulators” (University of New Mexico, priority 1993, dated 1999).

Columns and labels:
B16F10 cells = settings: Sw in drinking water (3 μg/ml) for 24 hours; cited from earlier work
B16 melanoma cells = assay: effect of swainsonine on B16 melanoma solid tumor growth; assay type: in vivo, C57Bl/6 mice; settings: for inhibition of B16 growth at other doses: 1.0, 0.01 and 0.001 μg Sw
Description: The B16 melanoma cells were purchased from American Type Culture Collection (ATCC). They were maintained in complete α-MEM (SIGMA) (with 10% fetal calf serum (FCS) (Sigma), 100 U/ml penicillin (Sigma), 100 μg/ml streptomycin (Sigma) and 2 mM glutamine (Sigma)) in Corning 75 cm^2 straight necked flasks (T75) and grown with 5.5% CO2 in air with 95% humidity in a New Brunswick Scientific water jacketed incubator. […] They were harvested using 1× Trypsin-EDTA (Sigma), centrifuged at 100×g with a Beckman TJ6 centrifuge, counted using a hemocytometer and stained with trypan blue to determine viability. The cells used for injection into the mice were washed three times in phosphate buffered saline (PBS), counted and resuspended in PBS at a final concentration of 6×10^6 cells per ml.
The swainsonine, purchased from Boehringer Mannheim, was initially suspended in PBS at 100 μg/ml. Subsequent dilutions utilized in the following experiments were made in PBS.
Fifteen female C57Bl/6 mice (6 weeks old, from Harlan Sprague Dawley Laboratories) were treated 3 times per week on a Monday-Wednesday-Friday (MWF) schedule for three weeks prior to the injection of the 6×10^5 B16 melanoma cells. The treatment consisted of 0.1 ml (total volume) intraperitoneal injections of swainsonine in the mornings before 9:00 am. The treatment groups were as follows:
The MWF treatment with the swainsonine continued after the tumor cell injection until the termination of the study. Once the tumor was palpable, electronic calipers were used to measure the length (l), width (w) and depth (d) of the tumor. The volume of the tumor was then determined by V=πr^2 ×d, with the assumption that the tumor is a […], then r=(l+w)/4.

For `O[C@H]1[C@H]2[C@H](O)CCCN2C[C@H]1O` [Swainsonine, swainsonine], the “stimulation of CTL” value (B16F10 cells) is given as “no stimulation of CTL”, the “delay of tumor growth onset” value (B16 melanoma cells; 0.1 μg Sw) is given as “two” and the “reduction of tumor size compared to controls” value (B16 melanoma cells; 0.1 μg Sw, day 9, p=0.03) is given as 74%. The “reduction of tumor size compared to controls” value (B16 melanoma cells; 0.1 μg Sw, day 11, p=0.003) was 68%, the “day of palpable tumors” value (B16 melanoma cells; 0.1 μg Sw, control day 5) was 7 days and the “day of measurable tumors” value (B16 melanoma cells; 0.1 μg Sw, control day 7) was 9 days. The “tumor growth at 1.0 μg” value (B16 melanoma cells; 1.0 μg Sw, in words) was “enhanced growth”, the “inhibition of B16 growth at other doses” value (B16 melanoma cells; in words) was “no effect on delaying growth” and the “inhibition of B16 growth at other doses” value (B16 melanoma cells; in words, listed as Sw) was “less effective at inhibiting the B16 growth (p<0.5)”.
